Reference: patent US20250171516A1, “PEPTIDE ACIDS AS A GLP1R AGONIST AND ANTIBODY-DRUG CONJUGATES THEREOF” (Regeneron Pharmaceuticals, Inc., priority 2023, published 2025)
Like-named read-outs stand apart in the source and are kept apart here. Starred links: 1 amine or outer side, 2 acyl side, 3 side chain; linkers in the order of their positions; H or OH if unused. Non-standard residues stand in square brackets, D forms with d. Residues, ends and D or L forms follow the SMILES beside them. Groups on a side chain read outwards from the residue. ξ: configuration not given here. *: point of attachment. X3 = CCc1cc(OCCCCn2cc(COCCOCCOCCOCCOCCOCCOCCOCCOCCOCCOCCOCCN)nn2)ccc1-c1ccc(C[C@H](N[*:1])C(=O)[*:2])cc1; X2 = CCc1cc(OCCCCn2cc(COCCOCCOCCOCCOCCOCCOCCOCCN[*:3])nn2)ccc1-c1ccc(C[C@H](N[*:1])C(=O)[*:2])cc1; X1 = CCc1cc(OCCCCn2cc(COCCOCCOCCOCCOCCOCCOCCOCCN)nn2)ccc1-c1ccc(C[C@H](N[*:1])C(=O)[*:2])cc1; Bip(2'-Et,4'-O(CH2)4N3) = CCc1cc(OCCCCN=[N+]=[N-])ccc1-c1ccc(C[C@H](N)C(=O)O)cc1; Bip(2'-Et,4'-O(CH2)4NH2) = CCc1cc(OCCCCN)ccc1-c1ccc(C[C@H](N)C(=O)O)cc1; Malonyl(2,2-Me2,histaminyl) = CC(C)(C(=O)NCCc1cnc[nH]1)C(=O)*; Nva(5-(3,5-Me2Ph)) = Cc1cc(C)cc(CCC[C@H](N)C(=O)O)c1; Ala(1H-tetrazol-5-yl) = N[C@@H](Cc1nnn[nH]1)C(=O)O; αMePhe(2-F) = C[C@](N)(Cc1ccccc1F)C(=O)O; γGlu = O=C(O)[C@H](CCC(=O)[*:2])N[*:1]; ξαMePhe(2-F) = CC(N)(Cc1ccccc1F)C(=O)O; tBu = CC(C)(C)*

Biological target: GLP-1R (Homo sapiens, UniProt P43220)
Test: GLP-1R cAMP assay of peptides (Tables 10, 14, 15)
Assay type: cell-based
[1] = Table 10, read-out: GLP-1R CAMP EC50
[2] = Table 14, peptide amides, read-out: cAMP EC50
[3] = Table 15, peptide acids, read-out: cAMP EC50

GLP-1R, sequence (P43220 24-463): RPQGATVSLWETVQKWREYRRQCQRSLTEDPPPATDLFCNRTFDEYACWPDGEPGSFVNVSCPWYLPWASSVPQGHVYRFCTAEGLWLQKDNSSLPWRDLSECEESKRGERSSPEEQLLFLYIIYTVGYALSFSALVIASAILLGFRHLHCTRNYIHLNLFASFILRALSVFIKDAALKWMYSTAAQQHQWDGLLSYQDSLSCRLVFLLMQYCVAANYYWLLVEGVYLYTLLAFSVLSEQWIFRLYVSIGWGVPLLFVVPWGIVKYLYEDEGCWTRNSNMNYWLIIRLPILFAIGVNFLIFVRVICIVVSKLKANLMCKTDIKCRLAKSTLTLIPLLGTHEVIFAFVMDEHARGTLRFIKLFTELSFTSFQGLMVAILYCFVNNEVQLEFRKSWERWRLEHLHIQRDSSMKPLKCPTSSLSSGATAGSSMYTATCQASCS

Row | SMILES | GLP-1R CAMP Max (Table 10) [%] | EC50 [1] [nM] | EC50 [2] [nM] | also measured
1 | CCc1cc(OCCCCn2cc(COCCOCCOCCOCCOCCOCCOCCOCCN)nn2)ccc1-c1ccc(C[C@H](NC(=O)[C@H](CC(=O)O)NC(=O)[C@H](CO)NC(=O)[C@@H](NC(=O)[C@](C)(Cc2ccccc2F)NC(=O)[C@@H](NC(=O)CNC(=O)[C@H](Cc2nnn[nH]2)NC(=O)C(C)(C)C(=O)NCCc2cnc[nH]2)[C@@H](C)O)[C@@H](C)O)C(N)=O)cc1 ({Malonyl(2,2-Me2,histaminyl)}-[Ala(1H-tetrazol-5-yl)]GT[αMePhe(2-F)]TSD[X1]-NH2) | 104.11 | 59.6 |  | 
2 | CCc1cc(OCCCCn2cc(COCCOCCOCCOCCOCCOCCOCCOCCOCCOCCOCCOCCN)nn2)ccc1-c1ccc(C[C@H](NC(=O)[C@H](CC(=O)O)NC(=O)[C@H](CO)NC(=O)[C@@H](NC(=O)[C@](C)(Cc2ccccc2F)NC(=O)[C@@H](NC(=O)CNC(=O)[C@H](Cc2nn[nH]n2)NC(=O)C(C)(C)C(=O)NCCc2c[nH]cn2)[C@@H](C)O)[C@@H](C)O)C(=O)N[C@@H](CCCc2cc(C)cc(C)c2)C(N)=O)cc1 ({Malonyl(2,2-Me2,histaminyl)}-[Ala(1H-tetrazol-5-yl)]GT[αMePhe(2-F)]TSD[X3][Nva(5-(3,5-Me2Ph))]-NH2) |  |  | 1.89 | 
3 | CCc1cc(OCCCCN=[N+]=[N-])ccc1-c1ccc(C[C@H](NC(=O)[C@H](CC(=O)O)NC(=O)[C@H](COC(C)(C)C)NC(=O)[C@@H](NC(=O)C(C)(Cc2ccccc2F)NC(=O)[C@@H](NC(=O)CNC(=O)[C@H](Cc2nnn[nH]2)NC(=O)C(C)(C)C(=O)NCCc2cnc[nH]2)[C@@H](C)O)[C@@H](C)O)C(=O)N[C@@H](CCCc2cc(C)cc(C)c2)C(=O)O)cc1 (stereo partly shown) ({Malonyl(2,2-Me2,histaminyl)}-[Ala(1H-tetrazol-5-yl)]GT[ξαMePhe(2-F)]TS(tBu)D[Bip(2'-Et,4'-O(CH2)4N3)][Nva(5-(3,5-Me2Ph))]-OH) | 122.44 | 2.94 |  | 
4 | CCc1cc(OCCCCN=[N+]=[N-])ccc1-c1ccc(C[C@H](NC(=O)[C@H](CC(=O)O)NC(=O)[C@H](CO)NC(=O)[C@@H](NC(=O)C(C)(Cc2ccccc2F)NC(=O)[C@@H](NC(=O)CNC(=O)[C@H](Cc2nnn[nH]2)NC(=O)C(C)(C)C(=O)NCCc2cnc[nH]2)[C@@H](C)O)[C@@H](C)O)C(=O)O)cc1 (stereo partly shown) [AA10-AA9-AA8-AA7-AA6-AA5-AA4-AA3-AA2-OH] | 97.92 | 51.2 |  | 
5 | C[C@@H](O)[C@H](NC(=O)CNC(=O)[C@H](Cc1nn[nH]n1)NC(=O)C(C)(C)C(=O)NCCc1cnc[nH]1)C(=O)N[C@@](C)(Cc1ccccc1F)C(=O)N[C@H](C(=O)N[C@@H](CO)C(=O)N[C@@H](CC(=O)O)C(=O)O)[C@@H](C)O [AA10-AA9-AA8-AA7-AA6-AA5-AA4-AA3-OH] | −0.25 | > 1000 |  | 
6 | C[C@@H](O)[C@H](NC(=O)CNC(=O)[C@H](Cc1nn[nH]n1)NC(=O)C(C)(C)C(=O)NCCc1cnc[nH]1)C(=O)N[C@@](C)(Cc1ccccc1F)C(=O)N[C@H](C(=O)N[C@@H](CO)C(=O)O)[C@@H](C)O [AA10-AA9-AA8-AA7-AA6-AA5-AA4-OH] ({Malonyl(2,2-Me2,histaminyl)}-[Ala(1H-tetrazol-5-yl)]GT[αMePhe(2-F)]TS-OH) | −0.86 | > 1000 |  | 
7 | C[C@@H](O)[C@H](NC(=O)[C@](C)(Cc1ccccc1F)NC(=O)[C@@H](NC(=O)CNC(=O)[C@H](Cc1nn[nH]n1)NC(=O)C(C)(C)C(=O)NCCc1cnc[nH]1)[C@@H](C)O)C(=O)O [AA10-AA9-AA8-AA7-AA6-AA5-OH] ({Malonyl(2,2-Me2,histaminyl)}-[Ala(1H-tetrazol-5-yl)]GT[αMePhe(2-F)]T-OH) | −1.23 | > 1000 |  | 
8 | C[C@@H](O)[C@H](NC(=O)CNC(=O)[C@H](Cc1nn[nH]n1)NC(=O)C(C)(C)C(=O)NCCc1cnc[nH]1)C(=O)N[C@@](C)(Cc1ccccc1F)C(=O)O [AA10-AA9-AA8-AA7-AA6-OH] ({Malonyl(2,2-Me2,histaminyl)}-[Ala(1H-tetrazol-5-yl)]GT[αMePhe(2-F)]-OH) | −1.13 | > 1000 |  | 
9 | C[C@@H](O)[C@H](NC(=O)CNC(=O)[C@H](Cc1nn[nH]n1)NC(=O)C(C)(C)C(=O)NCCc1cnc[nH]1)C(=O)O [AA10-AA9-AA8-AA7-OH] | −0.52 | > 1000 |  | 
10 | CC(C)(C(=O)NCCc1cnc[nH]1)C(=O)N[C@@H](Cc1nn[nH]n1)C(=O)NCC(=O)O [AA10-AA9-AA8-OH] | −1.39 | > 1000 |  | 
11 | CCc1cc(OCCCCN=[N+]=[N-])ccc1-c1ccc(C[C@H](NC(=O)[C@H](CC(=O)O)NC(=O)[C@H](CO)NC(=O)[C@@H](NC(=O)[C@](C)(Cc2ccccc2F)NC(=O)[C@@H](NC(=O)CNC(=O)[C@H](Cc2nn[nH]n2)NC(=O)C(C)(C)C(=O)NCCc2cnc[nH]2)[C@@H](C)O)[C@@H](C)O)C(=O)N[C@@H](CCCc2cc(C)cc(C)c2)C(N)=O)cc1 [M2361] ({Malonyl(2,2-Me2,histaminyl)}-[Ala(1H-tetrazol-5-yl)]GT[αMePhe(2-F)]TSD[Bip(2'-Et,4'-O(CH2)4N3)][Nva(5-(3,5-Me2Ph))]-NH2) |  |  | 0.359 | 
12 | CCc1cc(OCCCCN=[N+]=[N-])ccc1-c1ccc(C[C@H](NC(=O)[C@H](CC(=O)O)NC(=O)[C@H](CO)NC(=O)[C@@H](NC(=O)[C@](C)(Cc2ccccc2F)NC(=O)[C@@H](NC(=O)CNC(=O)[C@H](Cc2nnn[nH]2)NC(=O)C(C)(C)C(=O)NCCc2cnc[nH]2)[C@@H](C)O)[C@@H](C)O)C(=O)N[C@@H](CCCc2cc(C)cc(C)c2)C(N)=O)cc1 [M2361] ({Malonyl(2,2-Me2,histaminyl)}-[Ala(1H-tetrazol-5-yl)]GT[αMePhe(2-F)]TSD[Bip(2'-Et,4'-O(CH2)4N3)][Nva(5-(3,5-Me2Ph))]-NH2) |  |  | 0.497 | 
13 | CCc1cc(OCCCCN=[N+]=[N-])ccc1-c1ccc(C[C@H](NC(=O)[C@H](CC(=O)O)NC(=O)[C@H](CO)NC(=O)[C@@H](NC(=O)[C@](C)(Cc2ccccc2F)NC(=O)[C@@H](NC(=O)CNC(=O)[C@@H](N)Cc2nn[nH]n2)[C@@H](C)O)[C@@H](C)O)C(=O)N[C@@H](CCCc2cc(C)cc(C)c2)C(N)=O)cc1 [M2383] (H-[Ala(1H-tetrazol-5-yl)]GT[αMePhe(2-F)]TSD[Bip(2'-Et,4'-O(CH2)4N3)][Nva(5-(3,5-Me2Ph))]-NH2) |  |  | 280 | 
14 | CCc1cc(OCCCCN)ccc1-c1ccc(C[C@H](NC(=O)[C@H](CC(=O)O)NC(=O)[C@H](CO)NC(=O)[C@@H](NC(=O)[C@](C)(Cc2ccccc2F)NC(=O)[C@@H](NC(=O)CNC(=O)[C@H](Cc2nnn[nH]2)NC(=O)C(C)(C)C(=O)NCCc2cnc[nH]2)[C@@H](C)O)[C@@H](C)O)C(=O)N[C@@H](CCCc2cc(C)cc(C)c2)C(N)=O)cc1 [M2642] ({Malonyl(2,2-Me2,histaminyl)}-[Ala(1H-tetrazol-5-yl)]GT[αMePhe(2-F)]TSD[Bip(2'-Et,4'-O(CH2)4NH2)][Nva(5-(3,5-Me2Ph))]-NH2) |  |  | 0.0502 | 
15 | CCc1cc(OCCCCn2cc(COCCOCCOCCOCCOCCOCCOCCOCCN)nn2)ccc1-c1ccc(C[C@H](NC(=O)[C@H](CC(=O)O)NC(=O)[C@H](CO)NC(=O)[C@@H](NC(=O)[C@](C)(Cc2ccccc2F)NC(=O)[C@@H](NC(=O)CNC(=O)[C@@H](N)Cc2nnn[nH]2)[C@@H](C)O)[C@@H](C)O)C(=O)N[C@@H](CCCc2cc(C)cc(C)c2)C(N)=O)cc1 [M6295] (H-[Ala(1H-tetrazol-5-yl)]GT[αMePhe(2-F)]TSD[X1][Nva(5-(3,5-Me2Ph))]-NH2) |  |  | 351 | 
16 | CCc1cc(OCCCCn2cc(COCCOCCOCCOCCOCCOCCOCCOCCNC(=O)CC[C@H](NC(=O)[C@H](CC(C)C)NC(=O)[C@@H](N)CC(C)C)C(=O)O)nn2)ccc1-c1ccc(C[C@H](NC(=O)[C@H](CC(=O)O)NC(=O)[C@H](CO)NC(=O)[C@@H](NC(=O)[C@](C)(Cc2ccccc2F)NC(=O)[C@@H](NC(=O)CNC(=O)[C@H](Cc2nnn[nH]2)NC(=O)C(C)(C)C(=O)NCCc2cnc[nH]2)[C@@H](C)O)[C@@H](C)O)C(=O)N[C@@H](CCCc2cc(C)cc(C)c2)C(N)=O)cc1 [M6296] ({Malonyl(2,2-Me2,histaminyl)}-[Ala(1H-tetrazol-5-yl)]GT[αMePhe(2-F)]TSD[X2]([γGlu-Leu-Leu])[Nva(5-(3,5-Me2Ph))]-NH2) |  |  | 1.19 | 
17 | CCc1cc(OCCCCn2cc(COCCOCCOCCOCCOCCOCCOCCOCCNC(=O)CC[C@H](NC(=O)[C@H](CC(C)C)NC(=O)[C@@H](N)CC(C)C)C(=O)O)nn2)ccc1-c1ccc(C[C@H](NC(=O)[C@H](CC(=O)O)NC(=O)[C@H](CO)NC(=O)[C@@H](NC(=O)[C@](C)(Cc2ccccc2F)NC(=O)[C@@H](NC(=O)CNC(=O)[C@H](Cc2nnn[nH]2)NC(=O)C(C)(C)C(=O)NCCc2cnc[nH]2)[C@@H](C)O)[C@@H](C)O)C(=O)N[C@@H](CCCc2cc(C)cc(C)c2)C(=O)O)cc1 [M6297] ({Malonyl(2,2-Me2,histaminyl)}-[Ala(1H-tetrazol-5-yl)]GT[αMePhe(2-F)]TSD[X2]([γGlu-Leu-Leu])[Nva(5-(3,5-Me2Ph))]-OH) | 103.80 |  |  | EC50: 13.4 nM
18 | CCc1cc(OCCCCN=[N+]=[N-])ccc1-c1ccc(C[C@H](NC(=O)[C@H](CC(=O)O)NC(=O)[C@H](CO)NC(=O)[C@@H](NC(=O)[C@](C)(Cc2ccccc2F)NC(=O)[C@@H](NC(=O)CNC(=O)[C@H](Cc2nn[nH]n2)NC(=O)C(C)(C)C(=O)NCCc2cnc[nH]2)[C@@H](C)O)[C@@H](C)O)C(=O)O)cc1 [M6320] |  |  |  | EC50 [3]: 51.2 nM
19 | CCc1cc(OCCCCn2cc(COCCOCCOCCOCCOCCOCCOCCOCCNC(=O)CC[C@H](NC(=O)[C@H](CC(C)C)NC(=O)[C@@H](N)CC(C)C)C(=O)O)nn2)ccc1-c1ccc(C[C@H](NC(=O)[C@H](CC(=O)O)NC(=O)[C@H](CO)NC(=O)[C@@H](NC(=O)C(C)(Cc2ccccc2F)NC(=O)[C@@H](NC(=O)CNC(=O)[C@H](Cc2nn[nH]n2)NC(=O)C(C)(C)C(=O)NCCc2cnc[nH]2)[C@@H](C)O)[C@@H](C)O)C(=O)O)cc1 (stereo partly shown) [M6321] | 33.86 | > 1000 |  | EC50 [3]: > 1000 nM
